According to PubChem BioAssay (NCI):
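Where inhibition never reached the appropriate level, the endpoint shown equals the highest concentration tested. Otherwise, values were interpolated linearly from a five-concentration, 48-hour dose response in 96-well plates. GI50: concentration for 50% inhibition of growth. TGI is the concentration that stops growth completely.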

Assays:
Test in all cases: growth of human tumour cells (NCI), 48 h
OVCAR-8 ovarian = system: OVCAR-8 ovarian
COLO 205 colon = system: COLO 205 colon
HT29 colon = system: HT29 colon
SF-295 CNS = system: SF-295 CNS
RPMI-8226 leukemia = system: RPMI-8226 leukemia
ACHN renal = system: ACHN renal
MDA-MB-435 = system: MDA-MB-435
SK-MEL-5 melanoma = system: SK-MEL-5 melanoma
LOX IMVI melanoma = system: LOX IMVI melanoma
DU-145 prostate = system: DU-145 prostate
NCI-H23 lung = system: NCI-H23 lung
UO-31 renal = system: UO-31 renal
NCI-H522 lung = system: NCI-H522 lung
SF-539 CNS = system: SF-539 CNS
SF-268 CNS = system: SF-268 CNS
KM12 colon = system: KM12 colon
OVCAR-4 ovarian = system: OVCAR-4 ovarian
MDA-MB-231 breast = system: MDA-MB-231 breast
UACC-257 melanoma = system: UACC-257 melanoma
A498 renal = system: A498 renal
CCRF-CEM leukemia = system: CCRF-CEM leukemia
UACC-62 melanoma = system: UACC-62 melanoma
SN12C renal = system: SN12C renal
CAKI-1 renal = system: CAKI-1 renal
OVCAR-3 ovarian = system: OVCAR-3 ovarian
SK-MEL-28 melanoma = system: SK-MEL-28 melanoma
HCT-116 colon = system: HCT-116 colon
RXF 393 renal = system: RXF 393 renal
HL-60(TB) leukemia = system: HL-60(TB) leukemia
SR leukemia = system: SR leukemia
MALME-3M melanoma = system: MALME-3M melanoma
SNB-19 CNS = system: SNB-19 CNS
HS 578T breast = system: HS 578T breast
SK-MEL-2 melanoma = system: SK-MEL-2 melanoma
SK-OV-3 ovarian = system: SK-OV-3 ovarian
MCF7 breast = system: MCF7 breast
NCI/ADR-RES ovarian = system: NCI/ADR-RES ovarian
SNB-75 CNS = system: SNB-75 CNS
NCI-H226 lung = system: NCI-H226 lung
T-47D breast = system: T-47D breast
IGROV1 ovarian = system: IGROV1 ovarian
SW-620 colon = system: SW-620 colon
HCT-15 colon = system: HCT-15 colon
MOLT-4 leukemia = system: MOLT-4 leukemia
M14 melanoma = system: M14 melanoma
BT-549 breast = system: BT-549 breast
K-562 leukemia = system: K-562 leukemia
HOP-62 NSCLC = system: HOP-62 NSCLC
HOP-92 NSCLC = system: HOP-92 NSCLC
PC-3 prostate = system: PC-3 prostate
HCC-2998 colon = system: HCC-2998 colon
EKVX NSCLC = system: EKVX NSCLC
A549 NSCLC = system: A549 NSCLC
NCI-H460 lung = system: NCI-H460 lung
OVCAR-5 ovarian = system: OVCAR-5 ovarian
786-0 renal = system: 786-0 renal
TK-10 renal = system: TK-10 renal
U251 CNS = system: U251 CNS

In the case of `O=C1c2ccc3c4c(ccc(c24)C(=O)N1CCCNCc1ccccc1)C(=O)N(CCCNCc1ccccc1)C3=O`, the GI50 (OVCAR-8 ovarian) is reported as 99.3 nM, the TGI (OVCAR-8 ovarian) is reported as 407 nM and the GI50 (COLO 205 colon) is reported as 113 nM. It also gave a TGI (COLO 205 colon) of 240 nM, a GI50 (HT29 colon) of 42.1 nM and a TGI (HT29 colon) of 231 nM. It also gave a GI50 (SF-295 CNS) of 173 nM, a TGI (SF-295 CNS) of 432 nM and a GI50 (RPMI-8226 leukemia) of 265 nM. It also gave a TGI (RPMI-8226 leukemia) of 939 nM, a GI50 (ACHN renal) of 135 nM and a TGI (ACHN renal) of 722 nM. The GI50 (MDA-MB-435) was 180 nM, the TGI (MDA-MB-435) was 356 nM and the GI50 (SK-MEL-5 melanoma) was 165 nM. For the same compound, the TGI (SK-MEL-5 melanoma) was 302 nM, the GI50 (LOX IMVI melanoma) was 135 nM and the TGI (LOX IMVI melanoma) was 363 nM. It also gave a GI50 (DU-145 prostate) of 156 nM, a TGI (DU-145 prostate) of 297 nM and a GI50 (NCI-H23 lung) of 180 nM. The TGI (NCI-H23 lung) was 420 nM, the GI50 (UO-31 renal) was 148 nM and the TGI (UO-31 renal) was 364 nM. The GI50 (NCI-H522 lung) was 142 nM, the TGI (NCI-H522 lung) was 303 nM and the GI50 (SF-539 CNS) was 194 nM. It also gave a TGI (SF-539 CNS) of 450 nM, a GI50 (SF-268 CNS) of 173 nM and a TGI (SF-268 CNS) of 531 nM. For the same compound, the GI50 (KM12 colon) was 108 nM, the TGI (KM12 colon) was 288 nM and the GI50 (OVCAR-4 ovarian) was 119 nM. For the same compound, the TGI (OVCAR-4 ovarian) was 248 nM, the GI50 (MDA-MB-231 breast) was 238 nM and the TGI (MDA-MB-231 breast) was 917 nM. It also gave a GI50 (UACC-257 melanoma) of 199 nM, a TGI (UACC-257 melanoma) of 386 nM and a GI50 (A498 renal) of 951 nM. The TGI (A498 renal) was 2180 nM, the GI50 (CCRF-CEM leukemia) was 170 nM and the TGI (CCRF-CEM leukemia) was 4730 nM. For the same compound, the GI50 (UACC-62 melanoma) was 180 nM, the TGI (UACC-62 melanoma) was 333 nM and the GI50 (SN12C renal) was 145 nM. For the same compound, the TGI (SN12C renal) was 308 nM, the GI50 (CAKI-1 renal) was 210 nM and the TGI (CAKI-1 renal) was 588 nM. The GI50 (OVCAR-3 ovarian) was 130 nM, the TGI (OVCAR-3 ovarian) was 476 nM and the GI50 (SK-MEL-28 melanoma) was 247 nM. For the same compound, the TGI (SK-MEL-28 melanoma) was 636 nM, the GI50 (HCT-116 colon) was 80.1 nM and the TGI (HCT-116 colon) was 390 nM. For the same compound, the GI50 (RXF 393 renal) was 135 nM, the TGI (RXF 393 renal) was 270 nM and the GI50 (HL-60(TB) leukemia) was 163 nM. For the same compound, the TGI (HL-60(TB) leukemia) was 412 nM, the GI50 (SR leukemia) was 75.6 nM and the TGI (SR leukemia) was 505 nM. It also gave a GI50 (MALME-3M melanoma) of 152 nM, a TGI (MALME-3M melanoma) of 298 nM and a GI50 (SNB-19 CNS) of 130 nM. It also gave a TGI (SNB-19 CNS) of 314 nM, a GI50 (HS 578T breast) of 531 nM and a TGI (HS 578T breast) of 3240 nM. The GI50 (SK-MEL-2 melanoma) was 178 nM, the TGI (SK-MEL-2 melanoma) was 363 nM and the GI50 (SK-OV-3 ovarian) was 285 nM. It also gave a TGI (SK-OV-3 ovarian) of 820 nM, a GI50 (MCF7 breast) of 80.8 nM and a TGI (MCF7 breast) of 330 nM. The GI50 (NCI/ADR-RES ovarian) was 236 nM, the TGI (NCI/ADR-RES ovarian) was 779 nM and the GI50 (SNB-75 CNS) was 147 nM. For the same compound, the TGI (SNB-75 CNS) was 291 nM, the GI50 (NCI-H226 lung) was 694 nM and the TGI (NCI-H226 lung) was 2250 nM. For the same compound, the GI50 (T-47D breast) was 192 nM, the TGI (T-47D breast) was 429 nM and the GI50 (IGROV1 ovarian) was 110 nM. For the same compound, the TGI (IGROV1 ovarian) was 405 nM, the GI50 (SW-620 colon) was 75.8 nM and the TGI (SW-620 colon) was 326 nM. It also gave a GI50 (HCT-15 colon) of 116 nM, a TGI (HCT-15 colon) of 316 nM and a GI50 (MOLT-4 leukemia) of 85.8 nM. For the same compound, the TGI (MOLT-4 leukemia) was 437 nM, the GI50 (M14 melanoma) was 161 nM and the TGI (M14 melanoma) was 307 nM. It also gave a GI50 (BT-549 breast) of 451 nM, a TGI (BT-549 breast) of 889 nM and a GI50 (K-562 leukemia) of 136 nM. The TGI (K-562 leukemia) was 778 nM, the GI50 (HOP-62 NSCLC) was 232 nM and the TGI (HOP-62 NSCLC) was 772 nM. The GI50 (HOP-92 NSCLC) was 199 nM, the TGI (HOP-92 NSCLC) was 585 nM and the GI50 (PC-3 prostate) was 203 nM. For the same compound, the TGI (PC-3 prostate) was 622 nM, the GI50 (HCC-2998 colon) was 154 nM and the TGI (HCC-2998 colon) was 303 nM. For the same compound, the GI50 (EKVX NSCLC) was 165 nM, the TGI (EKVX NSCLC) was 323 nM and the GI50 (A549 NSCLC) was 131 nM. For the same compound, the TGI (A549 NSCLC) was 365 nM, the GI50 (NCI-H460 lung) was 146 nM and the TGI (NCI-H460 lung) was 579 nM. For the same compound, the GI50 (OVCAR-5 ovarian) was 233 nM, the TGI (OVCAR-5 ovarian) was 648 nM and the GI50 (786-0 renal) was 251 nM. It also gave a TGI (786-0 renal) of 837 nM, a GI50 (TK-10 renal) of 119 nM and a TGI (TK-10 renal) of 413 nM. It also gave a GI50 (U251 CNS) of 112 nM and a TGI (U251 CNS) of 301 nM.
